Among the data in BindingDB's records for doi:10.1016/s0960-894x(02)00995-2 (The Oxford Centre For Molecular Sciences and The Dyson …, 2003) are IC50 values, retold here.

This assay has as its target T1, Chymotrypsin-like elastase family member 2A (Sus scrofa, UniProt P08419).
T1 sequence (P08419 whole entry): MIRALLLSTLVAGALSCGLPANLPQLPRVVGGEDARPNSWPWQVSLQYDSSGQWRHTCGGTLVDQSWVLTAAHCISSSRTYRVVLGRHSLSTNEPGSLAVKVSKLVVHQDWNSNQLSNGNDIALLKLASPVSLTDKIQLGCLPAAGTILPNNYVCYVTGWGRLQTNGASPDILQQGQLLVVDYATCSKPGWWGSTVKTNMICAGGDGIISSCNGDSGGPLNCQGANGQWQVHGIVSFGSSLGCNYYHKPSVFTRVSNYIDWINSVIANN
Briefly: ChEBML_152310. From the text:
Inhibitory concentration against porcine pancreatic elastase (PPE)
As usually defined, the IC50 is the concentration that gives 50% inhibition. Take `Cc1ccc(S(=O)(=O)N2CCN(Cc3ccccc3)C(=O)[C@@H]2CC(C)C)cc1` [(S)-1-Benzyl-3-isobutyl-4-(toluene-4-sulfonyl)-piperazin-2-one]: half-maximal inhibition (IC50) required 62 µM.
In the case of `CC(C)C[C@H]1C(=O)N(Cc2ccccc2)CCN1S(C)(=O)=O` [(S)-1-Benzyl-3-isobutyl-4-methanesulfonyl-piperazin-2-one], the IC50 turned out to be 2000 µM.
Under `CC(C)C[C@H]1C(=O)N(S(C)(=O)=O)CCN1C(=O)OC(C)(C)C` [(S)-2-Isobutyl-4-methanesulfonyl-3-oxo-piperazine-1-carboxylic acid tert-butyl ester] stands 923 µM; under `CCC(C)[C@H]1C(=O)N(S(=O)(=O)c2ccc(C)cc2)CCN1C(=O)OC(C)(C)C` (stereo partly drawn) [(S)-2-sec-Butyl-3-oxo-4-(toluene-4-sulfonyl)-piperazine-1-carboxylic acid tert-butyl ester], 293 µM.
